In ChEMBL document CHEMBL4312005, “Optimization of pyrrolizine-based Schiff bases with 4-thiazolidinone motif: Design, synthesis and investigation of cytotoxicity and anti-inflammatory potency” (Eur J Med Chem, 2020):

Experiments:
Design in all cases: scale not given: the % may be the effect or the level left
[1] = target: T1, Mitogen-activated protein kinase kinase kinase 5 (Homo sapiens) (UniProt Q99683); experiment: Inhibition of recombinant human N-terminal GST-tagged ASK1 (649 to 946 residues) expressed in baculovirus infected Sf9 insect cells assessed as enzyme activity incubated for 15 mins by [gamma-33]ATP based scintillation counting method relative to control
T1 sequence (whole entry): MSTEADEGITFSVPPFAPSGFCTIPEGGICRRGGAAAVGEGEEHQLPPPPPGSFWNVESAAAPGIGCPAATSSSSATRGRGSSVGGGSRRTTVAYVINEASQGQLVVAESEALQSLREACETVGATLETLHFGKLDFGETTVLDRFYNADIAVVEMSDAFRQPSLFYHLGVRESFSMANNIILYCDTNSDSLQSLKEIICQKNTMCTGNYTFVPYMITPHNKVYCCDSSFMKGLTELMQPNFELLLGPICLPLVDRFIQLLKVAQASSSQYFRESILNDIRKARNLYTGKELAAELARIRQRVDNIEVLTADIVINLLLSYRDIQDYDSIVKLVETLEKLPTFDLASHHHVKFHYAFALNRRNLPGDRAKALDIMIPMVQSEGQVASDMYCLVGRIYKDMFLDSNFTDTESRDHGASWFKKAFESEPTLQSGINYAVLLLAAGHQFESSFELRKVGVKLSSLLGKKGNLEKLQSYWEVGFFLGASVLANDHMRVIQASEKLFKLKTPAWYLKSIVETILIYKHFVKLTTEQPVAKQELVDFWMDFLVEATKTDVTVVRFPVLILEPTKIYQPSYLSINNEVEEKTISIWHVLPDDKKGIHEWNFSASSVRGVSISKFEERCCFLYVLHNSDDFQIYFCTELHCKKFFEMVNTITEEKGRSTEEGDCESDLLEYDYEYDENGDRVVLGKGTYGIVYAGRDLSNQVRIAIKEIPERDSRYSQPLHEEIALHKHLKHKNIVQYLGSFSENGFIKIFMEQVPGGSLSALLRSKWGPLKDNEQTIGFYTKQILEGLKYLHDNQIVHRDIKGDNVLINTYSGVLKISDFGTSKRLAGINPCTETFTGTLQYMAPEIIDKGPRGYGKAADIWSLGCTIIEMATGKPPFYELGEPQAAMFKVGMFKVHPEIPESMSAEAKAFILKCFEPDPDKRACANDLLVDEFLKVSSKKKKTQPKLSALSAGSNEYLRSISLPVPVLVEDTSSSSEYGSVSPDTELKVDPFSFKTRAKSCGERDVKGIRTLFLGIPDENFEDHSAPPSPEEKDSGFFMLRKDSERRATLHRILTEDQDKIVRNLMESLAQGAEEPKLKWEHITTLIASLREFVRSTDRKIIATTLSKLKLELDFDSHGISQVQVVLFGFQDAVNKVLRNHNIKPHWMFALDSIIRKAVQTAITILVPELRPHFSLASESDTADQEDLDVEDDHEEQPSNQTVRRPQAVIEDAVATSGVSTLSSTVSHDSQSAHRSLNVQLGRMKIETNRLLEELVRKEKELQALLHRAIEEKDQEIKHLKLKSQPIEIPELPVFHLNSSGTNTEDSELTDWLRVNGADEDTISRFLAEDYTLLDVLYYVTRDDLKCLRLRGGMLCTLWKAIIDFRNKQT

[2] = target: Epidermal growth factor receptor (Homo sapiens) (UniProt P00533); experiment: Inhibition of EGFR (unknown origin) assessed as enzyme activity incubated for 15 mins by [gamma-33]ATP based scintillation counting method relative to control
[3] = target: T2, Serine/threonine-protein kinase Nek1 (Homo sapiens) (UniProt Q96PY6); experiment: Inhibition of recombinant human N-terminal GST-tagged full length NEK1 expressed in baculovirus infected Sf9 insect cells assessed as enzyme activity incubated for 15 mins by [gamma-33]ATP based scintillation counting method relative to control
T2 sequence (whole entry): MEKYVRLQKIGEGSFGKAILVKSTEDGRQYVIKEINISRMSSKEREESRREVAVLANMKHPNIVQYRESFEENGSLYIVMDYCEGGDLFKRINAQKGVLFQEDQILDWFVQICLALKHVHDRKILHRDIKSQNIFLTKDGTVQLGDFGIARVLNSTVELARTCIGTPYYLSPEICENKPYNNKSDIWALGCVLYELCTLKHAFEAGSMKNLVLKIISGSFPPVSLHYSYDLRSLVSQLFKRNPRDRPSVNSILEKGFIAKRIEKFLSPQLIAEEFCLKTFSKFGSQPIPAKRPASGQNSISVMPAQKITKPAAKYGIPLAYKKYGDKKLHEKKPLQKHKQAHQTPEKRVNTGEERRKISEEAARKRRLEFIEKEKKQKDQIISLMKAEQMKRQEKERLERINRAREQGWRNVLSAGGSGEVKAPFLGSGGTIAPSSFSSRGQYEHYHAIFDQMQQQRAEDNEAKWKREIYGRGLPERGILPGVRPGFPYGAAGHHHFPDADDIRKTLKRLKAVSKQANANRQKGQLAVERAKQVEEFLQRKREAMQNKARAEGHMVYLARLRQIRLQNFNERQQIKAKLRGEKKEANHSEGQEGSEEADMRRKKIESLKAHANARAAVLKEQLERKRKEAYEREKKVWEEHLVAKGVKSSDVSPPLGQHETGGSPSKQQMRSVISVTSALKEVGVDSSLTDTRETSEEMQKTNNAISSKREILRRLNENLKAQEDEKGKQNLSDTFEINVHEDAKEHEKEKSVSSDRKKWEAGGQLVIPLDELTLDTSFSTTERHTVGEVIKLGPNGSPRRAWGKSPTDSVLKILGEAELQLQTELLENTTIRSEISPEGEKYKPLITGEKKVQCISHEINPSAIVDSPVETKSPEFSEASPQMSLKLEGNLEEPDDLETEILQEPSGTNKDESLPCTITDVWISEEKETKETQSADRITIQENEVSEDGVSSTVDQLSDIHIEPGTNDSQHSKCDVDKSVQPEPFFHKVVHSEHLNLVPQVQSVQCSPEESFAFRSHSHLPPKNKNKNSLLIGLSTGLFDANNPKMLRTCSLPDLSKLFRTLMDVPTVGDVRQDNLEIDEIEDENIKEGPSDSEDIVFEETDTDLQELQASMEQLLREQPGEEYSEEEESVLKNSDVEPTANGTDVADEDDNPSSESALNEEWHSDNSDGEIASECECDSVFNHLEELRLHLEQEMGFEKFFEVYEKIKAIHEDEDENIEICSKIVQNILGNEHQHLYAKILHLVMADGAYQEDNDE

Chain of Epidermal growth factor receptor (Homo sapiens) (P00533 whole entry): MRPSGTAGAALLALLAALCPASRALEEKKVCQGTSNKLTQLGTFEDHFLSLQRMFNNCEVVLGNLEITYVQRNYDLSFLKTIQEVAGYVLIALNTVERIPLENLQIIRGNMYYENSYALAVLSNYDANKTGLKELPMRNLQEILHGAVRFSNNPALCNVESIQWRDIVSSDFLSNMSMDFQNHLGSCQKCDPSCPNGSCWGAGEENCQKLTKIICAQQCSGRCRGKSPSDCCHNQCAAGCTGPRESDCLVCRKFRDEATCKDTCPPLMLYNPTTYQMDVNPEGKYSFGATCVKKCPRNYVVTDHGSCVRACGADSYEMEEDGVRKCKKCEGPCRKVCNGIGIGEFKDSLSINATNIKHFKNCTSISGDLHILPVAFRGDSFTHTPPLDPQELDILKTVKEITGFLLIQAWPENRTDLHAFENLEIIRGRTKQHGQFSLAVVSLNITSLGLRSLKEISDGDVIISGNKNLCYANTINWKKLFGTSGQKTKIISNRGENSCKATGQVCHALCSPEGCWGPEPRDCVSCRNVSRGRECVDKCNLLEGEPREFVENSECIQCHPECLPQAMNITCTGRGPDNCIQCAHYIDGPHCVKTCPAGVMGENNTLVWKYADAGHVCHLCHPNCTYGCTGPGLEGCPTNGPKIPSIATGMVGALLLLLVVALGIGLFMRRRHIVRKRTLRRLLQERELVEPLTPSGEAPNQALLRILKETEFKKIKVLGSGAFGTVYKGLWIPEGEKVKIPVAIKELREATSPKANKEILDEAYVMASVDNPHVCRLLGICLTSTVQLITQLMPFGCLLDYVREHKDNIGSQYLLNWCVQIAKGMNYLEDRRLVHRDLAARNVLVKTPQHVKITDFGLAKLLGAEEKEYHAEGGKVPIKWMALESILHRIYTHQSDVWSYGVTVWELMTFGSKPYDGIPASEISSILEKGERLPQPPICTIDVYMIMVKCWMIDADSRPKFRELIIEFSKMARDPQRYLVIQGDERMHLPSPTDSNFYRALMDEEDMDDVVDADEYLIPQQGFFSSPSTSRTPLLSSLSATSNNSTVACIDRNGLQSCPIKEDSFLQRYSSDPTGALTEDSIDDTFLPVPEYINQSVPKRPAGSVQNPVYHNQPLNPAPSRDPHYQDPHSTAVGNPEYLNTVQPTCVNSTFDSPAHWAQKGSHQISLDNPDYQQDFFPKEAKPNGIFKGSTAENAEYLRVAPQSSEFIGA

Activity [1] [%] | Activity [2] [%] | Activity [3] [%] | SMILES
5 | 13 |  | Cc1ccc(NC(=O)c2ccc(CN3CCN(C)CC3)cc2)cc1Nc1nccc(-c2cccnc2)n1
26 | 40 | -14 | CC(C)C/C=N/c1c(C#N)c2n(c1C(=O)Nc1ccc(Br)cc1)CCC2
-14 | -10 | -1 | CC/C=N/c1c(C#N)c2n(c1C(=O)Nc1ccccc1)CCC2
-3 | 10 | 10 | CCC1SCC(=O)N1c1c(C#N)c2n(c1C(=O)Nc1ccccc1)CCC2 (stereo unspecified)
